Measurements: patent US9469645B2, “Compounds and compositions for the treatment of parasitic diseases” (Novartis AG, priority 2009, dated 2016)

Experiments:
3D7 P. falciparum strain = assay: parasite proliferation assay in infected red blood cells (SYBR Green I); format: cell-based, Plasmodium falciparum; conditions: Plasmodium falciparum, 3D7, Erythrocyte, 3D7 strain; read-out: EC50 3D7 strain
Procedure, shortened: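 P. falciparum 3D7 grown in O+ human erythrocytes to 3–8% parasitemia and exposed to compounds. Proliferation read as the increase in parasite DNA. Detection used SYBR Green I in saponin/triton-X/EDTA lysis buffer, with overnight lysis at room temperature.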

W2 strain = assay: parasite proliferation assay in infected red blood cells (SYBR Green I), W2 strain; format: cell-based; conditions: Plasmodium falciparum, Erythrocyte
Description: Compounds of the invention can be assayed to measure their capacity to inhibit proliferation of parasitemia in infected red blood cells. The proliferation is quantified by the addition of SYBR Green I (INVITROGEN)® dye which has a high affinity for double stranded DNA.

Structure (SMILES)	EC50 (3D7 P. falciparum strain)	EC50 (W2 strain)
CC1(C)c2nc(-c3ccc(F)cc3)c(Nc3ccc(C(F)(F)F)c(Cl)c3)n2CCN1C(=O)CN [Compound 658]	5 nM	6 nM
Cc1cc(Nc2c(-c3ccc(F)cc3)nc3n2CCN(C(=O)CN)C3(C)C)ccc1Cl [Compound 659]	4390 nM	5280 nM
CC1(C)c2nc(-c3ccc(F)cc3)c(NC3CCC(F)(F)CC3)n2CCN1C(=O)CN [Compound 660]	3 nM	6 nM
CC1(C)c2nc(-c3ccc(F)cc3)c(NC3CCC(c4ccccc4)CC3)n2CCN1C(=O)CN (stereo not shown) [Compound 661]	339 nM	520 nM
CC1(C)c2nc(-c3ccc(F)cc3)c(NC3CCC(C(F)(F)F)CC3)n2CCN1C(=O)CN (stereo not shown) [Compound 662]	38 nM	33 nM
CC(C)(C)C1CCC(Nc2c(-c3ccc(F)cc3)nc3n2CCN(C(=O)CN)C3(C)C)CC1 (stereo not shown) [Compound 663]	1060 nM	1660 nM
CC1CCCCC1Nc1c(-c2ccc(F)cc2)nc2n1CCN(C(=O)CN)C2(C)C (stereo not shown) [Compound 664]	3690 nM	4080 nM
CC1(C)c2nc(-c3ccc(F)cc3)c(NC3CCCCCC3)n2CCN1C(=O)CN [Compound 665]	102 nM	69 nM
CC1CC(Nc2c(-c3ccc(F)cc3)nc3n2CCN(C(=O)CN)C3(C)C)CC(C)(C)C1 (stereo not shown) [Compound 666]	> 10000 nM	4970 nM
CC1(C)c2nc(-c3ccc(F)cc3)c(N[C@@H]3C[C@H]4CC[C@@H]3C4)n2CCN1C(=O)CN [Compound 667]	104 nM	82 nM
CN(C)C1CCN(c2c(-c3ccc(F)cc3)nc3n2CCN(C(=O)CN)C3(C)C)C1 (stereo not shown) [Compound 668]	3430 nM	> 10000 nM
CC1(C)c2nc(-c3ccc(F)cc3)c(N3CCC(N4CCCCC4)CC3)n2CCN1C(=O)CN [Compound 669]	3980 nM	> 10000 nM
CC1(C)c2nc(-c3ccc(F)cc3)c(NC3CCCC3)n2CCN1C(=O)CN [Compound 670]	402 nM	711 nM
CC1(C)c2nc(-c3ccc(F)cc3)c(NC3CCC3)n2CCN1C(=O)CN [Compound 671]	1290 nM	1090 nM
CC1(C)c2nc(-c3ccc(F)cc3)c(NC3CCOCC3)n2CCN1C(=O)CN [Compound 672]	9840 nM	7140 nM
CN1CCC(N2CCN(c3c(-c4ccc(F)cc4)nc4n3CCN(C(=O)CN)C4(C)C)CC2)CC1 [Compound 673]	8870 nM	> 8720 nM
CCC(C)CNc1c(-c2ccc(F)cc2)nc2n1CCN(C(=O)CN)C2(C)C (stereo not shown) [Compound 674]	6280 nM	6310 nM
Cc1ccc(Nc2c(-c3ccc(F)cc3)nc3n2CC(=O)N(CCN(C)C)C3(C)C)cc1F [Compound 681]	272 nM	196 nM
Cc1ccc(Nc2c(-c3ccc(F)cc3)nc3n2CC(=O)N(CCN(C)C)C3(C)C)cc1Cl [Compound 682]	124 nM	111 nM

Structure (SMILES)	EC50 (3D7 P. falciparum strain)	EC50 (W2 strain)
Cc1cc(Nc2c(-c3ccc(F)cc3)nc3n2CC(=O)N(CCN(C)C)C3(C)C)ccc1F [Compound 683]	125 nM	112 nM
Cc1cc(Nc2c(-c3ccc(F)cc3)nc3n2CC(=O)N(CCN(C)C)C3(C)C)ccc1Cl [Compound 684]	30 nM	17 nM
CN(C)CCN1C(=O)Cn2c(nc(-c3ccc(F)cc3)c2Nc2ccc(Cl)c(F)c2)C1(C)C [Compound 685]	173 nM	131 nM
Cc1cc(Nc2c(-c3cccc(F)c3)nc3n2CC(=O)N(CC2CNC2)C3(C)C)ccc1F [Compound 686]	628 nM	524 nM
Cc1cc(Nc2c(-c3cccc(F)c3)nc3n2CC(=O)N(CCCN)C3(C)C)ccc1F [Compound 689]	512 nM	295 nM
Cc1cc(Nc2c(-c3cccc(F)c3)nc3n2CC(=O)N(CCCO)C3(C)C)ccc1F [Compound 690]	866 nM	760 nM
COCCCN1C(=O)Cn2c(nc(-c3cccc(F)c3)c2Nc2ccc(F)c(C)c2)C1(C)C [Compound 691]	68 nM	60 nM
Cc1cc(Nc2c(-c3cccc(F)c3)nc3n2CC(=O)N(CCCC(=O)O)C3(C)C)ccc1F [Compound 692, 4-(3-(4-fluoro-3-methylphenylamino)-2-(3-fluorophenyl)-8,8-dimethyl-6-oxo-5,6-dihydroimidazo[1,2-a]pyrazin-7(8H)-yl)butanoic acid]	6450 nM	5340 nM
CC1(C)c2nc(-c3ccc(F)cc3)c(Cc3ccc(F)cc3)n2CCN1C(=O)CN [Compound 693]	8 nM	8 nM
Cc1ccc(Cc2c(-c3ccc(F)cc3)nc3n2CCN(C(=O)CN)C3(C)C)cc1 [Compound 694]	11 nM	7 nM
COc1ccc(Cc2c(-c3ccc(F)cc3)nc3n2CCN(C(=O)CN)C3(C)C)cc1 [Compound 695, 2-amino-1-(2-(4-fluorophenyl)-3-(4-methoxybenzyl)-8,8-dimethyl-5,6-dihydroimidazol[1,2-a]pyrazin-7(8H)-yl)ethanone]	17 nM	19 nM
CC1(C)c2nc(-c3ccc(F)cc3)c(Cc3ccc(F)c(F)c3)n2CCN1C(=O)CN [Compound 696]	20 nM	22 nM
CC(C)(N)C(=O)N1CCn2c(nc(-c3ccc(F)cc3)c2Cc2ccc(F)cc2)C1 [Compound 697]	362 nM	256 nM
CN1CCN(Cc2c(-c3ccc(F)cc3)nc3n2CCN(C(=O)CN)C3(C)C)CC1 [Compound 698]	8810 nM	9020 nM
Cc1ccc(CC(N)C(=O)N2CCn3cc(-c4ccc(F)cc4)nc3C2(C)C)cc1 (stereo not shown) [Compound 700, 2-amino-1-(2-(4-fluorophenyl)-8,8-dimethyl-5,6-dihydroimidazo[1,2-a]pyrazin-7(8H)-yl)-3-p-tolylpropan-1-one]	> 9510 nM	7000 nM
CC1(C)c2nc(-c3ccc(F)cc3)cn2CCN1C(=O)C(N)CCc1cccc(F)c1 (stereo not shown) [Compound 701]	8270 nM	7350 nM
CC1(C)c2nc(-c3ccc(F)cc3)cn2CCN1C(=O)C(N)CCc1ccc(Cl)cc1 (stereo not shown) [Compound 702]	6030 nM	5850 nM
CC1(C)c2nc(-c3ccc(F)cc3)cn2CCN1C(=O)C(N)CC1CCCCC1 (stereo not shown) [Compound 703]	8570 nM	8290 nM
Cc1ccc(-c2c(-c3ccc(F)cc3)nc3n2CCN(C(=O)CN)C3(C)C)cc1 [Compound 704, 2-amino-1-(2-(4-fluorophenyl)-8,8-dimethyl-3-p-tolyl-5,6-dihydroimidazo-[1,2-a]pyrazin-7(8H)-yl)ethanone]	236 nM	232 nM

Structure (SMILES)	EC50 (3D7 P. falciparum strain)	EC50 (W2 strain)
CC1(C)c2nc(-c3ccc(F)cc3)c(-c3ccc(F)cc3)n2CCN1C(=O)CN [Compound 705]	1240 nM	760 nM
CC1(C)c2nc(-c3ccc(F)cc3)c(-c3ccc(F)c(Cl)c3)n2CCN1C(=O)CN [Compound 706]	252 nM	237 nM
CC1(C)NCCn2c1nc(-c1ccc(F)cc1)c2C(=O)Nc1ccc(F)cc1 [Compound 707, N,2-bis(4-fluorophenyl)-8,8-dimethyl-5,6,7,8-tetrahydroimidazo[1,2-a]pyrazine-3-carboxamide]	6540 nM	> 10000 nM
CC1(C)c2nc(-c3ccc(F)cc3)c(C(=O)Nc3ccc(F)cc3)n2CCN1C(=O)CN [Compound 708]	809 nM	1130 nM
CC1(C)c2nc(-c3ccc(F)cc3)c(Oc3ccc(F)cc3)n2CCN1C(=O)CN [Compound 709, 2-amino-1-(3-(4-fluorophenoxy)-2-(4-fluorophenyl)-8,8-dimethyl-5,6-dihydroimidazo[1,2-a]pyrazin-7(8H)-yl)ethanone]	3 nM	8 nM
CC1(C)c2nc(-c3ccc(F)cc3)c(Sc3cccc(F)c3)n2CCN1C(=O)CN [Compound 714]	7 nM	4 nM
CC1(C)c2nc(-c3ccc(F)cc3)c(Sc3ccc(F)cc3)n2CCN1C(=O)CN [Compound 715]	6 nM	6 nM
CC1(C)c2nc(-c3ccc(F)cc3)c(Sc3ccc(Cl)cc3)n2CCN1C(=O)CN [Compound 716]	2 nM	1 nM
Cc1cc(C)cc(Sc2c(-c3ccc(F)cc3)nc3n2CCN(C(=O)CN)C3(C)C)c1 [Compound 717]	26 nM	16 nM
CC1(C)c2nc(-c3ccc(F)cc3)c(Sc3ccc(F)c(F)c3)n2CCN1C(=O)CN [Compound 718]	8 nM	6 nM
CC1(C)c2nc(-c3ccc(F)cc3)c([S+]([O-])c3cccc(F)c3)n2CCN1C(=O)CN (stereo not shown) [Compound 719]	481 nM	361 nM
CC1(C)c2nc(-c3ccc(F)cc3)c([S+]([O-])c3ccc(F)cc3)n2CCN1C(=O)CN (stereo not shown) [Compound 720]	70 nM	69 nM
Cc1cc(C)cc([S+]([O-])c2c(-c3ccc(F)cc3)nc3n2CCN(C(=O)CN)C3(C)C)c1 (stereo not shown) [Compound 722]	381 nM	281 nM
CC1(C)c2nc(-c3ccc(F)cc3)c([S+]([O-])c3ccc(F)c(F)c3)n2CCN1C(=O)CN (stereo not shown) [Compound 723]	89 nM	68 nM
CC1(C)c2nc(-c3ccc(F)cc3)c([S+]([O-])c3ccc(Cl)cc3)n2CCN1C(=O)CN (stereo not shown) [Compound 724]	509 nM	287 nM
CC1(C)c2nc(-c3ccc(F)cc3)c(Nc3ccc(F)cc3)n2CCN1C(=O)CNC(=O)CCc1ccccc1 [Compound 726]	1920 nM	1480 nM
CC1(C)c2nc(-c3ccc(F)cc3)c(Nc3ccc(F)cc3)n2CCN1C(=O)CNC(=O)CCc1ccc2oc3ccccc3c2c1 [Compound 727]	6560 nM	2970 nM
CC1(C)c2nc(-c3ccc(F)cc3)c(Nc3ccc(F)cc3)n2CCN1C(=O)CNC(=O)CCNC(=O)CCc1ccccc1 [Compound 728]	5400 nM	1480 nM
